# US10159640B2, “Prebiotic oral care compositions containing amino acids” (COLGATE-PALMOLIVE COMPANY, priority 2013, dated 2018)
# Tests used:
# Assay type in all cases: cell-based
# [1] = tested on: beneficial oral bacteria and pathogenic oral bacteria; assay: Metabolic activity, whole panel: prebiotic effect; conditions: 48 hrs; threshold value of 2
# Procedure, shortened: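 Biolog phenotype microarrays with dipeptide-preloaded wells; each species suspended in IF-0 with Redox Dye Mix D (85% transmittance) plus succinate/ferric citrate, incubated anaerobically at 37° C. Tetrazolium reduction read at 492 nm at 24 and 48 h versus no-dipeptide controls; values are means of three biological replicates.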
# Streptococcus mitis = assay: Metabolic activity, Biolog phenotype microarray; conditions: control without dipeptide = 1
# Procedure, shortened: (§1)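 Each species, grown 48 h anaerobically on blood agar, was suspended in IF-0 fluid with tetrazolium Redox Dye D, succinate and ferric citrate, then dispensed onto dipeptide-preloaded plates. Incubated anaerobically at 37° C; OD 492 nm read at 24 and 48 h versus no-dipeptide controls; mean of three biological replicates.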
# Capnocytophaga sputigena = assay: Metabolic activity, Biolog phenotype microarray; conditions: control without dipeptide = 1
# Procedure, shortened: as §1
# Veillonella parvula = assay: Metabolic activity, Biolog phenotype microarray; conditions: control without dipeptide = 1
# Procedure, shortened: as §1
# Porphyromonas gingivalis = assay: Metabolic activity, Biolog phenotype microarray; conditions: control without dipeptide = 1
# Procedure, shortened: as §1
# Streptococcus sanguinis = assay: Metabolic activity, Biolog phenotype microarray; conditions: control without dipeptide = 1
# Procedure, shortened: as §1
# Actinomyces naeslundii = assay: Metabolic activity, Biolog phenotype microarray; conditions: control without dipeptide = 1
# Procedure, shortened: as §1
# Actinomyces viscosus = assay: Metabolic activity, Biolog phenotype microarray; conditions: control without dipeptide = 1
# Procedure, shortened: as §1
# Streptococcus mutans = assay: Metabolic activity, Biolog phenotype microarray; conditions: control without dipeptide = 1
# Procedure, shortened: as §1
# Streptococcus salivarius = assay: Metabolic activity, Biolog phenotype microarray; conditions: control without dipeptide = 1
# Procedure, shortened: as §1
# Tannerella forsythia = assay: Metabolic activity, Biolog phenotype microarray; conditions: control without dipeptide = 1
# Procedure, shortened: as §1
# Fusobacterium nucleatum = assay: Metabolic activity, Biolog phenotype microarray; conditions: control without dipeptide = 1
# Procedure, shortened: as §1
# Streptococcus sobrinus = assay: Metabolic activity, Biolog phenotype microarray; conditions: control without dipeptide = 1
# Procedure, shortened: as §1
# Streptococcus gordonii = assay: Metabolic activity, Biolog phenotype microarray; conditions: control without dipeptide = 1
# Procedure, shortened: as §1
# Prevotella intermedia = assay: Metabolic activity, Biolog phenotype microarray; conditions: control without dipeptide = 1
# Procedure, shortened: as §1
# [2] = tested on: Aggregatibacter actinomycetemcomitans; assay: Metabolic activity, Biolog phenotype microarray; conditions: control without dipeptide = 1
# Procedure, shortened: as §1
structure (smiles),measurement,setting,value
NC(Cc1c[nH]cn1)C(=O)NC(Cc1c[nH]c2ccccc12)C(=O)O (stereo not shown) [His-Trp],prebiotic effects (metabolic activity),[1],exhibited prebiotic effects
same,metabolic activity: OD 492 nm divided by OD of control,Streptococcus mitis; 24 hrs,0.9734
same,metabolic activity: OD 492 nm divided by OD of control,Streptococcus mitis; 48 hrs,1.0242
same,metabolic activity: OD 492 nm divided by OD of control,Capnocytophaga sputigena; 24 hrs,1.3266
same,metabolic activity: OD 492 nm divided by OD of control,Capnocytophaga sputigena; 48 hrs,1.3068
same,metabolic activity: OD 492 nm divided by OD of control,Veillonella parvula; 24 hrs,1.1364
same,metabolic activity: OD 492 nm divided by OD of control,Veillonella parvula; 48 hrs,1.4269
same,metabolic activity: OD 492 nm divided by OD of control,Porphyromonas gingivalis; 24 hrs,1.0126
same,metabolic activity: OD 492 nm divided by OD of control,Porphyromonas gingivalis; 48 hrs,1.3518
same,metabolic activity: OD 492 nm divided by OD of control,Streptococcus sanguinis; 24 hrs,1.0228
same,metabolic activity: OD 492 nm divided by OD of control,Streptococcus sanguinis; 48 hrs,1.0830
same,metabolic activity: OD 492 nm divided by OD of control,Actinomyces naeslundii; 24 hrs,1.3153
same,metabolic activity: OD 492 nm divided by OD of control,Actinomyces naeslundii; 48 hrs,1.5439
same,metabolic activity: OD 492 nm divided by OD of control,Actinomyces viscosus; 24 hrs,1.8735
same,metabolic activity: OD 492 nm divided by OD of control,Actinomyces viscosus; 48 hrs,2.2797
same,metabolic activity: OD 492 nm divided by OD of control,Streptococcus mutans; 24 hrs,1.0292
same,metabolic activity: OD 492 nm divided by OD of control,Streptococcus mutans; 48 hrs,1.5031
same,metabolic activity: OD 492 nm divided by OD of control,Streptococcus salivarius; 24 hrs,0.9767
same,metabolic activity: OD 492 nm divided by OD of control,Streptococcus salivarius; 48 hrs,1.0689
same,metabolic activity: OD 492 nm divided by OD of control,Tannerella forsythia; 24 hrs,0.8973
same,metabolic activity: OD 492 nm divided by OD of control,Tannerella forsythia; 48 hrs,0.9897
same,metabolic activity: OD 492 nm divided by OD of control,Fusobacterium nucleatum; 24 hrs,0.9185
same,metabolic activity: OD 492 nm divided by OD of control,Fusobacterium nucleatum; 48 hrs,0.9774
same,metabolic activity: OD 492 nm divided by OD of control,Streptococcus sobrinus; 24 hrs,1.0811
same,metabolic activity: OD 492 nm divided by OD of control,Streptococcus sobrinus; 48 hrs,1.2074
same,metabolic activity: OD 492 nm divided by OD of control,Streptococcus gordonii; 24 hrs,1.0431
same,metabolic activity: OD 492 nm divided by OD of control,Streptococcus gordonii; 48 hrs,1.1070
same,metabolic activity: OD 492 nm divided by OD of control,Prevotella intermedia; 24 hrs,1.0278
same,metabolic activity: OD 492 nm divided by OD of control,Prevotella intermedia; 48 hrs,1.2057
same,metabolic activity: OD 492 nm divided by OD of control,[2]; 24 hrs,0.9439
same,metabolic activity: OD 492 nm divided by OD of control,[2]; 48 hrs,0.9818
